In patent US20230338391A1, “TREATMENT FOR DEPRESSION” (TAKEDA PHARMACEUTICAL COMPANY LIMITED, priority 2020, published 2023):
Read-outs that look alike come from different tables or passages of the source.

Assay: Phase 1 single-rising dose (SRD, Part 1) plasma PK in healthy subjects
Assay type: in vivo, human
Settings: for Vd/F / AUC(0-inf) / Cmax / Tmax / AUC(0-t): both sexes, human, plasma; for Tmax: po
Description: The study was designed to assess the safety, tolerability, PK, and PD of COMPOUND A. A total of 88 subjects were enrolled in 6 SRD and 5 SRD/MRD cohorts (n=8 per cohort). The study was composed of 2 parts.
In Part 1 of the study (SRD cohorts), a single oral tablet dose of COMPOUND A (0.3, 1, 3, 5, 9, or 18 mg) or matching placebo was administered on Day 1 followed by safety, tolerability, PK, and PD assessments. In each SRD cohort of 8 subjects (6 active: 2 placebo), sentinel dosing was used whereby 2 initial subjects (1 active: 1 placebo) were administered study drug to evaluate safety and tolerability before dosing in the remaining subjects (5 active: 1 placebo) after an interval of at least 24 hours. Dosing in the remaining 6 subjects from each cohort was staggered such that only 3 subjects were dosed in 1 day, with the last 3 subjects being dosed after an additional 24-hour interval. The data from each cohort were reviewed sequentially to ensure adequate safety and tolerability before administering the next dose level. Study drug was administered after an overnight fast of at least 10 hours. Subjects were confined in the study unit for 5 days, from Check-in on Day −1 until approximately 96 hours after dosing. Subjects in Cohorts 1 to 5 (0.3-9 mg) returned to the clinic on Days 6 and 7 and subjects in Cohort 6 (18 mg) returned on Days 6, 7 and 8 for additional PK blood sample collections. To allow for a preliminary assessment of the effect of food on the PK of COMPOUND A, subjects in SRD Cohort 3 (3 mg) returned to the clinic to receive study drug under fed conditions (standard high-fat meal, as defined by the Food and Drug Administration (“FDA”)), after the safety and tolerability of the higher dose (5 mg) under fasted conditions had been established.
For all cohorts in Parts 1 and 2, serial PK blood samples were collected pre- and post-dose on Day 1 to measure plasma concentrations of COMPOUND A and its metabolites. For all SRD/MRD cohorts in Part 2, urine samples were collected pre- and post-dose on Day 1 and post-dose on Day 18 to measure concentrations of COMPOUND A and its metabolites.
For Part 1 of the study, all 36 subjects who received COMPOUND A were included in the PK set. For Part 2 of the study, all 30 subjects who received COMPOUND A were included in the PK set.
Referring now to FIG. 2, mean plasma concentration-time profiles (linear and semilog scales) of COMPOUND A were determined following single oral administration of COMPOUND A.

[1] = single oral 0.3 mg, mean, N = 6

## CC1=CN2CCS(=O)(=O)N=C2C(c2ccc(OC3CCCCC3)cc2)=N1 [COMPOUND A, 9-[4-(Cyclohexyloxy)phenyl]-7-methyl-3,4-dihydropyrazino[2,1-c][1,2,4]thiadiazine 2,2-dioxide]
oral, range across single dose levels, read-out: mean Vz/F
  Vd/F: 95.1 to 133 L
oral, range across the 0.3 to 18 mg single dose range, read-out: mean AUC∞
  AUC(0-inf): 148 to 8880 ng·h/mL
oral, range across the 0.3 to 18 mg single dose range, read-out: mean plasma Cmax
  Cmax: 3.63 to 126 ng/mL
0.3 mg, single oral 0.3 mg, median, N = 6, read-out: tmax
  Tmax: 1.25 h
1 mg, single oral 1 mg, median, N = 6, read-out: tmax
  Tmax: 2.5 h
3 mg, single oral 3 mg, median, N = 6, read-out: tmax
  Tmax: 1.75 h
5 mg, single oral 5 mg, median, N = 6, read-out: tmax
  Tmax: 2.75 h
9 mg, single oral 9 mg, median, N = 6, read-out: tmax
  Tmax: 5.5 h
18 mg, range across single oral doses 0.3, 1, 3, 5, 9, 18 mg, read-out: median tmax
  Tmax: 1.25 to 5.5 h
18 mg, single oral 18 mg, median, N = 6, read-out: tmax
  Tmax: 5.05 h
[1]
  AUC(0-t): 126 ng·h/mL
  CL/F: 2.17 L/h
  t1/2z: 33.1 h
Single oral 0.3 mg, mean, N = 6, read-out: AUC∞
  AUC(0-inf): 148 ng·h/mL
Single oral 0.3 mg, mean, N = 6, read-out: Cmax
  Cmax: 3.63 ng/mL
Single oral 0.3 mg, mean, N = 6, read-out: Vz/F
  Vd/F: 98.8 L
Single oral 1 mg, mean, N = 6
  AUC(0-t): 565 ng·h/mL
  CL/F: 1.79 L/h
  t1/2z: 41.3 h
Single oral 1 mg, mean, N = 6, read-out: AUC∞
  AUC(0-inf): 642 ng·h/mL
Single oral 1 mg, mean, N = 6, read-out: Cmax
  Cmax: 10.3 ng/mL
Single oral 1 mg, mean, N = 6, read-out: Vz/F
  Vd/F: 95.1 L
Single oral 3 mg, mean, N = 6
  AUC(0-t): 1340 ng·h/mL
  CL/F: 2.18 L/h
  t1/2z: 37.9 h
Single oral 3 mg, mean, N = 6, read-out: AUC∞
  AUC(0-inf): 1460 ng·h/mL
Single oral 3 mg, mean, N = 6, read-out: Cmax
  Cmax: 27.1 ng/mL
Single oral 3 mg, mean, N = 6, read-out: Vz/F
  Vd/F: 114 L
Single oral 5 mg, mean, N = 6
  AUC(0-t): 2320 ng·h/mL
  CL/F: 2.08 L/h
  t1/2z: 42.5 h
Single oral 5 mg, mean, N = 6, read-out: AUC∞
  AUC(0-inf): 2650 ng·h/mL
Single oral 5 mg, mean, N = 6, read-out: Cmax
  Cmax: 45.3 ng/mL
Single oral 5 mg, mean, N = 6, read-out: Vz/F
  Vd/F: 115 L
Single oral 9 mg, mean, N = 6
  AUC(0-t): 4490 ng·h/mL
  CL/F: 1.98 L/h
  t1/2z: 47.8 h
Single oral 9 mg, mean, N = 6, read-out: AUC∞
  AUC(0-inf): 5380 ng·h/mL
Single oral 9 mg, mean, N = 6, read-out: Cmax
  Cmax: 69.5 ng/mL
Single oral 9 mg, mean, N = 6, read-out: Vz/F
  Vd/F: 120 L
Single oral 18 mg, mean, N = 6
  AUC(0-t): 8080 ng·h/mL
  CL/F: 2.29 L/h
  t1/2z: 44.1 h
Single oral 18 mg, mean, N = 6, read-out: AUC∞
  AUC(0-inf): 8880 ng·h/mL
Single oral 18 mg, mean, N = 6, read-out: Cmax
  Cmax: 126 ng/mL
Single oral 18 mg, mean, N = 6, read-out: Vz/F
  Vd/F: 133 L
